Values of other authors in patent EP2090292A1, “Means and methods for controlling commensales” (B.R.A.I.N. Biotechnology Research and Information Network AG, priority 2008, dated 2009).
“Also recorded” adds a separate entry of the source.

System: Gram-positive and Gram-negative bacteria
Conditions: prior art, Torres et al. (1998); biofilm not assayed

## CC1OC(=O)C(C2OC2C)=CC1O (stereo not shown) [aspyrone, 6-Dihydro-5-hydroxy-6-methyl-3-(3-methyloxiranyl)-2H-pyran-2-one]
  inhibitory activity against Gram-positive and Gram-negative bacteria: weak inhibitory activity; also recorded: weak to negligible activity
